Source: patent publication US20220072101A1, “HARNESSING INFLAMMATION TO TREAT NEURODEVELOPMENTAL DISORDERS” (President and Fellows of Harvard College, priority 2019, published 2022)
“Also recorded” adds a separate entry of the source.

System: c-Fos
Assay: Quantification of c-Fos+ cells in the brain after LPS administration
Format: in vivo, mouse
Description: Animals were transcardially perfused with cold PFA (4% in PBS). Brains were kept in PFA overnight at 4° C. prior to vibratome sectioning (Leica VT1000s®). Brains were cut at 50 μm thickness for cFos quantification. Brains were cut at 100 μm thickness for all other experiments.
Prior to antibody labeling, sections were incubated in blocking solution (0.4% Triton X-100 and 2% goat serum in PBS) for 30 min. Sections were then incubated in blocking solution containing primary antibodies overnight at room temperature. Primary antibodies used were chicken anti-GFP (1:1000, Ab5450, Abcam®), rabbit anti-cFos (1:500, ABE457, Millipore®), rabbit anti-DsRed (1:1000, 632496, Clontech®). Sections were washed in wash buffer (0.4% Triton X-100 in PBS) three times before secondary antibody labeling. Sections were incubated in blocking solution containing secondary antibodies and DAPI (1:5000, D1306, Thermofisher™) for three hours at room temperature. Images of stained slices were acquired using a confocal microscope (LSM710, Carl Zeiss®) with a 10× or 20× objective lens.
Adult male mice were sacrificed five hours after LPS injection. c-Fos+ cells were quantified using the Cell Counter plugin in Fiji^25. All cells were counted within a single coronal section of each respective brain region as defined by the Paxinos and Franklin Mouse Atlas^26. Regions quantified include mPFC (Including only PrL and IL) (AP+1.98), S1DZ (AP-0.48), S1BF (AP-0.48), M1 (AP-0.46), M2 (AP-0.46), AuD (AP-1.94), CeA (AP-1.94), and V1 (AP-3.64). Somatosensory cortex dysgranular zone (S1DZ), somatosensory cortex barrel field (S1BF), secondary motor cortex (M2), primary motor cortex (M1), secondary auditory cortex dorsal part (AuD), central amygdala (CeA), medial prefrontal cortex (mPFC), prelimbic cortex (PrL), infralimbic cortex (IL), primary visual cortex (V1).
Adult male mice were sacrificed five hours after LPS injection. c-Fos^+ cells were quantified using the Cell Counter plugin in Fiji^28. All cells were counted within a single coronal section of each respective brain region as defined by the Paxinos and Franklin Mouse Atlas^29. Regions quantified include mPFC (PrL and IL) (AP+1.98), S1DZ (AP-0.46), S1BF (AP-0.46), M1 (AP-0.46), M2 (AP-0.46), AuD (AP-1.94), CeA (AP-1.94), and V1 (AP-3.64). Medial prefrontal cortex (mPFC), prelimbic cortex (PrL), infralimbic cortex (IL), primary somatosensory cortex dysgranular zone (S1DZ), primary somatosensory cortex barrel field (S1BF), primary motor cortex (M1), secondary motor cortex (M2), secondary auditory cortex dorsal part (AuD), central amygdala (CeA), primary visual cortex (V1). […]

## lipopolysaccharide [LPS]
LPS-treated MIA offspring, five hours after LPS
  number of c-Fos+ S1DZ neurons: indistinguishable from that of PBS offspring; also recorded: reduced to levels of control offspring
MIA offspring, LPS
  number of c-Fos-expressing neurons in the central amygdala (CeA): increased
MIA offspring, LPS, S1BF, M1, M2, mPFC, AuD, V1
  number of c-Fos-expressing neurons in other cortical regions: remained unchanged; also recorded: does not have a distinguishable effect on c-Fos expression in other cortical regions analyzed
Monogenic mutant mice (Cntnap2, Fmr1, Shank3), LPS
  number of S1DZ c-Fos+ neurons: failed to reduce the number of S1DZ c-Fos^+ neurons in monogenic mutant mice
